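The compound was tested at five concentrations on cells cultured in 96-well plates, with a 48-hour exposure period. The concentration for 50% growth inhibition is given as GI50.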 The source made the active and inactive calls. Cut-off read from the data, not from the text of the source: active = GI50 up to about 1.1 µM and inactive = higher.
Experiments:
Test in all cases: NCI-60 cell line screen, 48 h
UO-31 = tested on: UO-31
HCC 2998 = tested on: HCC 2998
SK-MEL-5 = tested on: SK-MEL-5
SF-539 = tested on: SF-539
SK-MEL-2 = tested on: SK-MEL-2
ACHN = tested on: ACHN
OVCAR-3 = tested on: OVCAR-3
OVCAR-5 = tested on: OVCAR-5
NCI-H226 = tested on: NCI-H226
BT-549 = tested on: BT-549
SNB-75 = tested on: SNB-75
HOP-62 = tested on: HOP-62
NCI-H460 = tested on: NCI-H460
U-251 = tested on: U-251
CCRF-CEM = tested on: CCRF-CEM
HCT-15 = tested on: HCT-15
UACC-62 = tested on: UACC-62
SK-OV-3 = tested on: SK-OV-3
MDA-MB-435 = tested on: MDA-MB-435
M19-MEL = tested on: M19-MEL

Row | SMILES | GI50 (UO-31) | GI50 (HCC 2998) | GI50 (SK-MEL-5) | GI50 (SF-539) | GI50 (SK-MEL-2) | GI50 (ACHN) | GI50 (OVCAR-3) | GI50 (OVCAR-5) | GI50 (NCI-H226) | GI50 (BT-549) | GI50 (SNB-75) | GI50 (HOP-62) | GI50 (NCI-H460) | GI50 (U-251) | GI50 (CCRF-CEM) | GI50 (HCT-15) [µM] | GI50 (UACC-62) | GI50 (SK-OV-3) | GI50 (MDA-MB-435) | GI50 (M19-MEL)
1 | O=C(CSc1nc2ccccc2c(=O)n1-c1ccccc1)N/N=C1\C(=O)Nc2ccc(Br)cc21 | 2.28 µM (inactive) | 8.17 µM (inactive) | 2.58 µM (inactive) | 2.1 µM (inactive) | 9.53 µM (inactive) | 4.57 µM (inactive) | 3.1 µM (inactive) | 2.92 µM (inactive) | 12.1 µM (inactive) | 10.3 µM (inactive) | 3.01 µM (inactive) | 2.59 µM (inactive) | 4.92 µM (inactive) | 1.82 µM (inactive) | 5.62 µM (inactive) | 4.39 | 4.44 µM (inactive) | 3.41 µM (inactive) | 5.71 µM (inactive) | –
2 | Cn1nc2ccc(Nc3cc(=O)[nH]c4ccc5nn(C)nc5c34)cc2n1 | > 100 µM (inactive) | > 100 µM (inactive) | > 100 µM (inactive) | > 100 µM (inactive) | > 100 µM (inactive) | > 100 µM (inactive) | > 100 µM (inactive) | > 100 µM (inactive) | > 100 µM (inactive) | > 100 µM (inactive) | > 100 µM (inactive) | > 100 µM (inactive) | > 100 µM (inactive) | > 100 µM (inactive) | > 100 µM (inactive) | > 100 | > 100 µM (inactive) | > 100 µM (inactive) | > 100 µM (inactive) | –
3 | O[C@H]1[C@H](O)[C@@H](O)[C@H](O)[C@@H](O)[C@H]1O [INOSITOL] | > 1000 µM (inactive) | > 1000 µM (inactive) | > 1000 µM (inactive) | > 1000 µM (inactive) | > 1000 µM (inactive) | > 1000 µM (inactive) | > 1000 µM (inactive) | > 1000 µM (inactive) | > 1000 µM (inactive) | > 1000 µM (inactive) | 0.1 µM (active) | > 1000 µM (inactive) | > 1000 µM (inactive) | > 1000 µM (inactive) | 1.7 µM (inactive) | > 1000 | > 1000 µM (inactive) | > 1000 µM (inactive) | > 1000 µM (inactive) | –
4 | CC(=O)Nc1ccc(S(=O)(=O)N/N=C/c2cc(I)cc([N+](=O)[O-])c2O)cc1 | 33.3 µM (inactive) | > 100 µM (inactive) | 44 µM (inactive) | – | 41.9 µM (inactive) | > 100 µM (inactive) | > 100 µM (inactive) | > 100 µM (inactive) | 62.4 µM (inactive) | – | 25.6 µM (inactive) | – | > 100 µM (inactive) | 49.4 µM (inactive) | 35.6 µM (inactive) | 75.5 | 30.3 µM (inactive) | 85.3 µM (inactive) | – | 66.4 µM (inactive)
5 | COC1(OC)C=CC(=O)C=C1 | 1.89 µM (inactive) | 3.68 µM (inactive) | 2.8 µM (inactive) | 1.74 µM (inactive) | 6.81 µM (inactive) | 2.54 µM (inactive) | 4.2 µM (inactive) | 10.4 µM (inactive) | 2.61 µM (inactive) | 3.55 µM (inactive) | 11 µM (inactive) | 10.6 µM (inactive) | 6.61 µM (inactive) | 1.78 µM (inactive) | 0.446 µM (active) | 4.17 | 1.82 µM (inactive) | 13 µM (inactive) | 3.31 µM (inactive) | –
6 | O=C(CN1CCN(C(=O)OCc2ccccc2)CCN(CC(=O)N2CCCCC2)CCN(C(=O)OCc2ccccc2)CC1)N1CCCCC1 | 3.19 µM (inactive) | 11.2 µM (inactive) | 6.87 µM (inactive) | 14.6 µM (inactive) | 19.5 µM (inactive) | 18.1 µM (inactive) | 10.7 µM (inactive) | 19.6 µM (inactive) | 5.82 µM (inactive) | 23.1 µM (inactive) | 4.22 µM (inactive) | 19.5 µM (inactive) | 12.4 µM (inactive) | 16.5 µM (inactive) | 6.44 µM (inactive) | 17.9 | 18.1 µM (inactive) | 27.7 µM (inactive) | 16.1 µM (inactive) | –
7 | Cn1cnc(C(N)=[Se])c1N | 2.07 µM (inactive) | 15.4 µM (inactive) | 3.21 µM (inactive) | 2.02 µM (inactive) | 2.27 µM (inactive) | 2.6 µM (inactive) | 2.03 µM (inactive) | 3.56 µM (inactive) | 3.11 µM (inactive) | 1.13 µM (inactive) | 2.2 µM (inactive) | 2.46 µM (inactive) | 0.183 µM (active) | 1.35 µM (inactive) | 2.24 µM (inactive) | 3.63 | 2 µM (inactive) | 1.25 µM (inactive) | 5.26 µM (inactive) | –
8 | Cc1cccc2c(NCCCN(C)C)c3c([N+](=O)[O-])ccc(C)c3nc12 | 0.216 µM (active) | < 0.0255 µM (active) | 0.082 µM (active) | 0.263 µM (active) | 0.132 µM (active) | 0.0908 µM (active) | 0.109 µM (active) | 0.264 µM (active) | 0.194 µM (active) | 0.256 µM (active) | 0.186 µM (active) | 0.047 µM (active) | < 0.0241 µM (active) | 0.147 µM (active) | 0.423 µM (active) | 0.0435 | 0.144 µM (active) | 0.278 µM (active) | 0.191 µM (active) | –
